System: 636577-100-R-J1-PDC complex spheroid viability
Assay: Anticancer human tumor 636577-100-R-J1-PDC patient-derived endometrial adenocarcinoma cell line growth inhibition [GQUAD]
Conditions: for IC50: curve of first compound; for viability, T/C: stronger effect = lower value; active = viability on the fitted dose curve at most 10% of control; inactive = the rest
Method in brief: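 Tumor cells were grown as complex spheroids with HUVEC endothelial cells and mesenchymal stem cells as stroma. G-quadruplex stabilizers were combined with targeted agents over half-log dilutions from near the clinical Cmax, or from 10 microM.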

[1] = second compound 0.0316 µM, first compound 0.0316 µM
[2] = second compound 0.0316 µM, first compound 0.1 µM
[3] = second compound 0.0316 µM, first compound 0.316 µM
[4] = second compound 0.0316 µM, first compound 1 µM
[5] = second compound 0.0316 µM, first compound 3.16 µM
[6] = second compound 0.0316 µM, first compound 10 µM
[7] = second compound 0.1 µM, first compound 0.0316 µM
[8] = second compound 0.1 µM, first compound 0.1 µM
[9] = second compound 0.1 µM, first compound 0.316 µM
[10] = second compound 0.1 µM, first compound 1 µM
[11] = second compound 0.1 µM, first compound 3.16 µM
[12] = second compound 0.1 µM, first compound 10 µM
[13] = second compound 0.316 µM, first compound 0.0316 µM
[14] = second compound 0.316 µM, first compound 0.1 µM
[15] = second compound 0.316 µM, first compound 0.316 µM
[16] = second compound 0.316 µM, first compound 1 µM
[17] = second compound 0.316 µM, first compound 3.16 µM
[18] = second compound 0.316 µM, first compound 10 µM
[19] = second compound 1 µM, first compound 0.0316 µM
[20] = second compound 1 µM, first compound 0.1 µM
[21] = second compound 1 µM, first compound 0.316 µM
[22] = second compound 1 µM, first compound 1 µM
[23] = second compound 1 µM, first compound 3.16 µM
[24] = second compound 1 µM, first compound 10 µM
[25] = second compound 3.16 µM, first compound 0.0316 µM
[26] = second compound 3.16 µM, first compound 0.1 µM
[27] = second compound 3.16 µM, first compound 0.316 µM
[28] = second compound 3.16 µM, first compound 1 µM
[29] = second compound 3.16 µM, first compound 3.16 µM
[30] = second compound 3.16 µM, first compound 10 µM
[31] = second compound 10 µM, first compound 0.0316 µM
[32] = second compound 10 µM, first compound 0.1 µM
[33] = second compound 10 µM, first compound 0.316 µM
[34] = second compound 10 µM, first compound 1 µM
[35] = second compound 10 µM, first compound 3.16 µM
[36] = second compound 10 µM, first compound 10 µM
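Note: viability read after seven days of drug exposure.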
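Throughout, for viability, T/C: luminescence signal used as a proxy for viable cells; 100% = DMSO vehicle control wells.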

CC(=O)O[C@H]1C(=O)[C@@]2(C)[C@H]([C@H](OC(=O)c3ccccc3)[C@]3(O)C[C@H](OC(=O)[C@H](O)[C@@H](NC(=O)c4ccccc4)c4ccccc4)C(C)=C1C3(C)C)[C@]1(OC(C)=O)CO[C@@H]1C[C@@H]2O + Cc1[nH]c2ccc(F)cc2c1-c1nc2c3cccnc3c3ncccc3c2[nH]1
< 31.6 nM: IC50 (second compound 0.0316 µM) | IC50 (second compound 0.1 µM) | IC50 (second compound 0.316 µM) | IC50 (second compound 1 µM) | IC50 (second compound 3.16 µM) | IC50 (second compound 10 µM)
active: viability, T/C [12] 9.8% | viability, T/C [30] 8.71%
inactive: viability, T/C [1] 16.9% | viability, T/C [2] 14.4% | viability, T/C [3] 13.5% | viability, T/C [4] 12% | viability, T/C [5] 11.2% | viability, T/C [6] 11.2% | viability, T/C [7] 15.5% | viability, T/C [8] 13.5% | viability, T/C [9] 10.8% | viability, T/C [10] 9.49% | viability, T/C [11] 11.1% | viability, T/C [13] 17.3% | viability, T/C [14] 13.2% | viability, T/C [15] 11.6% | viability, T/C [16] 10.4% | viability, T/C [17] 9.79% | viability, T/C [18] 11.4% | viability, T/C [19] 16.5% | viability, T/C [20] 12% | viability, T/C [21] 12% | viability, T/C [22] 12.1% | viability, T/C [23] 10.9% | viability, T/C [24] 11% | viability, T/C [25] 15.3% | viability, T/C [26] 11.7% | viability, T/C [27] 13.8% | viability, T/C [28] 12.5% | viability, T/C [29] 10.7% | viability, T/C [31] 15.6% | viability, T/C [32] 13.5% | viability, T/C [33] 10.5% | viability, T/C [34] 11.4% | viability, T/C [35] 12.7% | viability, T/C [36] 12.6%

COc1cc(C2c3cc4c(cc3C(OC3OC5COC(C)OC5C(O)C3O)C3COC(=O)C23)OCO4)cc(OC)c1O (stereo unspecified) + Cc1[nH]c2ccc(F)cc2c1-c1nc2c3cccnc3c3ncccc3c2[nH]1
36.8 nM: IC50 (second compound 10 µM)
inactive: viability, T/C [1] 80.6% | viability, T/C [2] 45.6% | viability, T/C [3] 24.1% | viability, T/C [4] 16.1% | viability, T/C [5] 16% | viability, T/C [6] 14% | viability, T/C [7] 68.4% | viability, T/C [8] 41.2% | viability, T/C [9] 23.4% | viability, T/C [10] 17.1% | viability, T/C [11] 17.5% | viability, T/C [12] 13.9% | viability, T/C [13] 71.5% | viability, T/C [14] 46.7% | viability, T/C [15] 21.1% | viability, T/C [16] 16.8% | viability, T/C [17] 16.8% | viability, T/C [18] 14.2% | viability, T/C [19] 65.3% | viability, T/C [20] 37.2% | viability, T/C [21] 21.4% | viability, T/C [22] 19.9% | viability, T/C [23] 18% | viability, T/C [24] 13.8% | viability, T/C [25] 30% | viability, T/C [26] 23.9% | viability, T/C [27] 21% | viability, T/C [28] 18.5% | viability, T/C [29] 17.8% | viability, T/C [30] 14.1% | viability, T/C [31] 52.5% | viability, T/C [32] 34.6% | viability, T/C [33] 21.9% | viability, T/C [34] 19.1% | viability, T/C [35] 18.3% | viability, T/C [36] 15.1%
< 31.6 nM: IC50 (second compound 3.16 µM)
58.8 nM: IC50 (second compound 1 µM)
85.8 nM: IC50 (second compound 0.316 µM)
86.7 nM: IC50 (second compound 0.0316 µM)
68.8 nM: IC50 (second compound 0.1 µM)

COc1cccc2c1C(=O)c1c(O)c3c(c(O)c1C2=O)CC(O)(C(=O)CO)CC3OC1CC(N)C(O)C(C)O1 (stereo unspecified) + Cc1[nH]c2ccc(F)cc2c1-c1nc2c3cccnc3c3ncccc3c2[nH]1
active: viability, T/C [4] 11.2% | viability, T/C [5] 0.53% | viability, T/C [6] 0.35% | viability, T/C [9] 8.25% | viability, T/C [10] 9.06% | viability, T/C [11] 0.53% | viability, T/C [12] 0.34% | viability, T/C [16] 9.89% | viability, T/C [17] 0.62% | viability, T/C [18] 0.43% | viability, T/C [22] 8.92% | viability, T/C [23] 0.78% | viability, T/C [24] 0.5% | viability, T/C [28] 11.4% | viability, T/C [29] 0.97% | viability, T/C [30] 0.58% | viability, T/C [34] 11.9% | viability, T/C [35] 0.69% | viability, T/C [36] 0.49%
< 31.6 nM: IC50 (second compound 0.0316 µM) | IC50 (second compound 0.1 µM) | IC50 (second compound 0.316 µM) | IC50 (second compound 1 µM) | IC50 (second compound 3.16 µM) | IC50 (second compound 10 µM)
inactive: viability, T/C [1] 37.8% | viability, T/C [2] 16.7% | viability, T/C [3] 15.8% | viability, T/C [7] 39.7% | viability, T/C [8] 18% | viability, T/C [13] 37% | viability, T/C [14] 18.9% | viability, T/C [15] 14% | viability, T/C [19] 29.9% | viability, T/C [20] 18.7% | viability, T/C [21] 12.2% | viability, T/C [25] 18.3% | viability, T/C [26] 18.4% | viability, T/C [27] 16.1% | viability, T/C [31] 30.1% | viability, T/C [32] 18.8% | viability, T/C [33] 16.1%

Source: PubChem BioAssay AID2060504 (Molecular Pharmacology Branch, DTP, NCI, 2025)
